Molecules are shown by their SMILES.

This series in a line: Quality of the Dane salt during storage for 30 days. The format is physicochemical.

Turning to `CCOC(=O)C=C(C)N[C@@H](C(=O)O)c1ccc(O)cc1` [Example 9], the quality during storage result (room temperature, air) is on record as “does not change”. For `CCOC(=O)C=C(C)N[C@@H](C(=O)[O-])c1ccccc1.[Na+]` [Example 15, sodium-D-N-(2-ethoxycarbonyl-1-methyl-vinyl)-α-amino-phenyl-acetate], where the note is “stored at room temperature”, the quality after storage result is “remains unchanged”.

The values above are taken from patent US5338868A, “Process for preparing alpha-amino-phenylacetic acid-trifluoromethane sulfonic acid mixed anhydrides” (Chinoin Gyogyszer- es Vegyeszeti Termekek Gyara Rt., priority 1989, dated 1994).
